# Results taken from article PMC11111955, “Safety and efficacy evaluation of halicin as an effective drug for inhibiting intestinal infections” (Frontiers in Pharmacology, 2024).
# Entries after “also recorded” stand apart in the source; their conditions may differ. Read-outs that look alike come from different tables or passages of the source.
# Key:
# [1] = tested on: Clostridium perfringens Type A; assay type: in vivo, BALB/c mice; settings: for survival of infected mice: 1 h after C. perfringens challenge
# [2] = tested on: Salmonella typhimurium strains TA97, TA98, TA100, and WP2uvrApKM101; assay: Ames test, all strains as summarised in the text
# [3] = tested on: ICR mice; assay: Acute oral toxicity test in ICR mice
# [4] = Pharmacokinetics of halicin in rat (oral)
# [5] = tested on: Salmonella (CVCC 3377); assay: Minimum inhibitory concentration (MIC); assay type: cell-based
# [6] = tested on: E. coli (ATCC 25922); assay: Minimum inhibitory concentration (MIC); assay type: cell-based, Escherichia coli
# Protocol: (§1) The test strains were inoculated on the corresponding solid medium and incubated overnight at 37°C. A single colony was picked from the medium and inoculated into Luria Broth (LB), and then incubated overnight at 37°C with shaking at 220 rpm. The bacterial suspension was diluted to 0.5 McFarland turbidity with Mueller Hinton broth (MHB), and then dilute 100 times for later use. Halicin was added to the 96-well plate, and diluted it to concentrations of 128, 64, 32, 16, 8, 4, 2, 1, 0.5, 0.25, 0.125, and 0 μg/mL by gradient. The 96-well plate was incubated at 37°C for 16 h, followed by observing and recording the results. The MIC was determined as the concentration at which there was no visible colony growth was observed.
# [7] = tested on: S. aureus (ATCC 29213); assay: Multipassage resistance study (continuous induction); settings: after 90 days of continuous exposure to 0.5 × MIC
# [8] = tested on: rats; assay: 90-Day subchronic toxicity assay
# [9] = tested on: C. perfringens (ATCC 13124); assay type: cell-based, Clostridium perfringens
# [10] = tested on: K. pneumoniae (ATCC 4352); assay: Minimum inhibitory concentration (MIC); assay type: cell-based, Klebsiella pneumoniae
# Protocol: as §1
# [11] = tested on: S. aureus (ATCC 29213); assay: Growth kinetics curve; assay type: cell-based, Staphylococcus aureus
# [12] = tested on: Escherichia coli (ATCC 25922); assay: Growth kinetics curve; assay type: cell-based
# [13] = tested on: zebrafish embryos; assay: Zebrafish embryonic malformation study; assay type: in vivo; settings: up to 4 μM; 24, 48 and 72 h after fertilization
# Protocol: For embryonic malformation studies, groups of 20 zebrafish embryos each were treated with halicin. The concentrations of the drug were set at 4, 2, 1, and 0.5 μM, in accordance with established protocols for zebrafish embryo acute toxicity test. Observations were conducted at 24, 48, and 72 h after fertilization using a microscope. The embryonic assessment focused on six specific teratogenic endpoints: pericardial edema, yolk sac edema, cardiac malformations, morphological body shape deformities, tail deformities, and craniofacial anomalies, as well as otolith abnormalities. To minimize the impact of random variability, these experiments were performed in triplicate ([OECD, 1998]).
# [14] = tested on: R. anatipestifer (ATCC 11845); assay: Minimum inhibitory concentration (MIC); assay type: cell-based, Riemerella anatipestifer
# [15] = tested on: MRSA (BNCC 337371); assay: Minimum inhibitory concentration (MIC); assay type: cell-based, Staphylococcus aureus
# [16] = tested on: P. aeruginosa (ATCC 27853); assay: Minimum inhibitory concentration (MIC); assay type: cell-based, Pseudomonas aeruginosa
# Protocol: as §1
# [17] = tested on: E. faecalis (ATCC 29212); assay: Minimum inhibitory concentration (MIC); assay type: cell-based, Enterococcus faecalis
# Protocol: as §1
# [18] = tested on: TA98; assay: Ames test; assay type: cell-based, Salmonella typhimurium
# Protocol: (§2) The experiments were performed in triplicate.
# [19] = tested on: TA100; assay: Ames test; assay type: cell-based, Salmonella typhimurium
# Protocol: as §2
# [20] = tested on: TA97a; assay: Ames test; assay type: cell-based, Salmonella typhimurium
# Protocol: as §2
compound,measurement,setting,value
Nc1nnc(Sc2ncc([N+](=O)[O-])s2)s1 [halicin],survival of infected mice,[1]; 5 mg/kg halicin,more than 80%
same,survival of infected mice,[1]; 10 mg/kg halicin,no deaths occurred; also recorded: All mice in the 10 mg/kg halicin group survived
same,therapeutic effect in infected mice,[1]; dose of 5 mg/kg,good therapeutic effects
same,efficacy compared with 10 mg/kg metronidazole,[1]; intestinal anaerobic bacteria infection in mice,much more effective
same,bacterial counts of the four strains,"[2]; 22.5 μg/plate, due to antibacterial effect",significantly decreased
same,mutagenicity in the Ames test,"[2]; concentrations below 11.2 μg/plate, with or without S9",non-mutagenic
same,mortality,[3]; 500 mg/kg oral,none died
same,survival rate at 7 days,"[3]; 1,000 mg/kg oral",80%
same,7-day survival rate,"[3]; 4,000 mg/kg oral",10%
same,LD50,"[3]; ICR mice, oral gavage, 7 days observation",2018.3 mg/kg
same,acute toxicity classification,[3]; based on LD50,low-toxicity compound
same,AUC0-last,[4]; High dose (50 mg/kg),459.58 ± 34.53 ng·h/mL
same,AUC0-∞,[4]; High dose (50 mg/kg),510.86 ± 46.62 ng·h/mL
same,Cl/F,[4]; High dose (50 mg/kg),983.0528 ± 117.355 mL/min/kg
same,Cmax,[4]; High dose (50 mg/kg),64.25 ± 1.98 ng/mL
same,MRTlast,[4]; High dose (50 mg/kg),5.85 ± 0.13 h
same,T1/2λz,[4]; High dose (50 mg/kg),8.57 ± 0.22 h
same,Tmax,[4]; High dose (50 mg/kg),1.33 ± 1.41 h
same,Vd/F,[4]; High dose (50 mg/kg),828.26908 ± 70.84029 L/kg
same,λz,[4]; High dose (50 mg/kg),0.085 ± 0.0016 h⁻¹
same,AUC0-last,[4]; Low dose (10 mg/kg),318.05 ± 31.27 ng·h/mL
same,AUC0-∞,[4]; Low dose (10 mg/kg),395.88 ± 42.41 ng·h/mL
same,Cl/F,[4]; Low dose (10 mg/kg),422.673 ± 44.3642 mL/min/kg
same,Cmax,[4]; Low dose (10 mg/kg),40.99 ± 2.37 ng/mL
same,MRTlast,[4]; Low dose (10 mg/kg),7.58 ± 0.41 h
same,T1/2λz,[4]; Low dose (10 mg/kg),10.32 ± 2.22 h
same,Tmax,[4]; Low dose (10 mg/kg),1.33 ± 1.41 h
same,Vd/F,[4]; Low dose (10 mg/kg),375.07455 ± 41.94437 L/kg
same,λz,[4]; Low dose (10 mg/kg),0.068 ± 0.016 h⁻¹
same,drug concentration in the blood,[4]; at 24 h after drug administration,≤ 5 ng/mL
same,absorption and elimination in vivo,[4]; drug metabolism experiments,poorly absorbed and quickly eliminated
same,MIC,[5],8 µg/mL
same,MIC,[6],8 µg/mL
same,MIC of SAR (S. aureus ATCC 29213 resistant strains),[7],64 µg/mL
same,water consumption and mental states,[8]; all dosage groups,no significant changes
same,body weight of female rats compared with the control group,"[8]; all halicin treatment groups, 90 days, p > 0.05",no significant difference
same,mortality,"[8]; any experimental group (50.5-201.8 mg/kg), 90 days",No mortality
same,weight of organs compared with the control group,"[8]; end of the experiment, all treatment groups, p > 0.05",no significant difference
same,maximum safe concentration,[8]; from the safety assessment,50.5 mg/kg
same,"kidney findings (autopsy, HE sections)","[8]; high dose 201.8 mg/kg, 201.8 mg/kg",slight renal inflammation; also recorded: kidney lesions
same,body weight of male rats compared with the control group,"[8]; high-dose group (201.8 mg/kg), oral, 90 days, p < 0.05",significantly lower
same,serum ALT and AST levels compared with the control group,"[8]; high-dose, p < 0.01",significantly reduced
same,diet compared with the control group,"[8]; low-dose group (50.5 mg/kg), p > 0.05",No significant differences
same,dosages with good safety and tolerability,"[8]; rats, oral, 90 days",below 50.5 mg/kg
same,MIC,[9],8 µg/mL
same,MIC,[10],8 µg/mL
same,growth in growth kinetics curve assay,[11]; 1 × MIC,started to grow rapidly after 16 h
same,growth in growth kinetics curve assay,"[11]; 4 × MIC, after 20 h",still proliferated significantly
same,type of antibacterial action,[11]; against S. aureus,bacteriostatic rather than a bactericidal agent
same,growth in growth kinetics curve assay,"[12]; 1/2 × MIC, E. coli (ATCC 25922)",significantly inhibited during the initial 16 h
same,growth in growth kinetics curve assay,"[12]; 4 × MIC, after 20 h",still proliferated significantly
same,teratogenic effects on the embryos,[13],no significant teratogenicity; also recorded: no any significant teratogenic effects
same,MIC,"[14]; R. anatipestife (ATCC 11845), second listing",8 µg/mL
same,MIC,"[14]; R. anatipestifer (ATCC 11845), first listing",4 µg/mL
same,MIC,[15],8 µg/mL
same,MIC,[16],64 µg/mL
same,MIC,[17],4 µg/mL
same,Ames test bacterial counts,"[18]; TA98, +S9, 5.6 μg/plate",30 ± 12.7
same,Ames test bacterial counts,"[18]; TA98, +S9, 11.2 μg/plate",43 ± 8.5
same,Ames test bacterial counts,"[18]; TA98, +S9, 22.5 μg/plate",53 ± 7.1
same,Ames test bacterial counts,"[18]; TA98, +S9, 45 μg/plate",0 ± 0
same,Ames test bacterial counts,"[18]; TA98, -S9, 5.6 μg/plate",27 ± 2.8
same,Ames test bacterial counts,"[18]; TA98, -S9, 11.2 μg/plate",61 ± 14.1
same,Ames test bacterial counts,"[18]; TA98, -S9, 22.5 μg/plate",55 ± 5.7
same,Ames test bacterial counts,"[18]; TA98, -S9, 45 μg/plate",0 ± 0
same,Ames test bacterial counts,"[19]; TA100, +S9, 5.6 μg/plate",171 ± 11.3
same,Ames test bacterial counts,"[19]; TA100, +S9, 11.2 μg/plate",152 ± 12.7
same,Ames test bacterial counts,"[19]; TA100, +S9, 22.5 μg/plate",0 ± 0
same,Ames test bacterial counts,"[19]; TA100, +S9, 45 μg/plate",0 ± 0
same,Ames test bacterial counts,"[19]; TA100, -S9, 5.6 μg/plate",121 ± 9.9
same,Ames test bacterial counts,"[19]; TA100, -S9, 11.2 μg/plate",0 ± 0
same,Ames test bacterial counts,"[19]; TA100, -S9, 22.5 μg/plate",0 ± 0
same,Ames test bacterial counts,"[19]; TA100, -S9, 45 μg/plate",0 ± 0
same,Ames test bacterial counts,"[20]; +S9, 5.6 μg/plate",145 ± 5.7
same,Ames test bacterial counts,"[20]; +S9, 11.2 μg/plate",151 ± 11.3
same,Ames test bacterial counts,"[20]; +S9, 22.5 μg/plate",31 ± 8.5
same,Ames test bacterial counts,"[20]; +S9, 45 μg/plate",0 ± 0
same,Ames test bacterial counts,"[20]; -S9, 5.6 μg/plate",82 ± 14.1
same,Ames test bacterial counts,"[20]; -S9, 11.2 μg/plate",115 ± 8.5
same,Ames test bacterial counts,"[20]; -S9, 22.5 μg/plate",0 ± 0
same,Ames test bacterial counts,"[20]; -S9, 45 μg/plate",0 ± 0
